In US9688645B2, “Macrocyclic urea and sulfamide derivatives as inhibitors of TAFIa” (SANOFI, priority 2008, dated 2017) one finds ring closure, yield of all isomers data, which are given here for one compound.

For this data set the following is noted: from C=CCOC[C@@H](NC(=O)[C@@H](Cc1cn(CC=C)cn1)NC(=O)OCc1ccccc1)C(C)C; rcm bond; benzylidene[1,3-bis(2,4,6-trimethylphenyl)-2-imidazolidinylidene]dichloro(tricyclohexylphosphine)ruthenium (Grubbs II catalyst); dichloromethane; 4.38 mM; 25.0 °C.

Regarding `CC(C)[C@H]1COCC=CCn2cnc(c2)C[C@@H](NC(=O)OCc2ccccc2)C(=O)N1`, the ring closure, yield of all isomers was 73.3%.
